Data reported in US6964766B1, “Peptides for use in immunotherapy of autoimmune diseases” (Akzo Nobel N.V., priority 1998, dated 2005).
Values joined by “and” are separate entries in the source; they are usually repeats but may differ in a detail not shown here. Identical values can stand only once. “Also recorded” adds a separate entry of the source. No end group written: not given here.

Assays:
[1] = target: T1, HLA-DRB1*0401-encoded molecules (Homo sapiens, UniProt P01903+P01911, A100K/A169T/F76Y/I96L/K127E/L162R/M171V/N62H/P40V/Q125Y/R42H/S133A/S149N/S66Y/V115G/V209L/W38E); experiment: competition peptide HLA-DR binding assay
T1 construct: HLA-DR4 (DRB1*0401) molecules were purified from the homozygous EBV-transformed human B lymphoblastoid cell lines Huly138IC2; endogenous in cells; host or cells: homozygous EBV-transformed human B lymphoblastoid cell line Huly138IC2

[2] = system: HLA-DRB1*0401-restricted hybridomas specific for HC gp-39 (263-275) (8B12, 14G11, 20H5); experiment: stimulation of HC gp-39 (263-275)-specific T-cell hybridomas (IL-2 production); type: cell-based, mouse; conditions: presented by DRB1*0401 EBV-transformed B cells, 48 hr
Protocol: To test the cross reactivity of the 3 different, HC gp39-specific hybridoma cell lines with the YKL-39 or the chitotriosidase peptide, 5×10^4 hybridoma cells and 2×10^5 irradiated (12000 RAD), EBV-transformed B cells carrying the DRB1*0401 specificity were incubated in 150 μl volumes in wells of a round-bottomed microtiter plate. Peptide antigen (HC gp-39 (263-275), YKL-39 (266-278), chitotriosidase (269-282) or a control peptide) was added in 50 μl volumes to duplicate wells. Forty-eight hr later 100 μl of the culture supernatant was assayed for IL-2 production using a sandwich ELISA with Pharmingen antibodies specific for mouse IL-2.

PBMC from RA patients [3] = experiment: recognition by PBMC ([3H]thymidine incorporation, stimulation index); type: cell-based, human
Protocol: Peripheral blood mononuclear cells (PBMC) were isolated from heparinized peripheral blood by standard centrifugation on Ficoll-Paque (Pharmacia, Uppsala, Sweden). Cells were suspended in wells of a 24 well plate in a concentration of 5×10^5 cells per ml. Cells were incubated in medium alone or in the presence of 10 or 50 μg/ml peptide antigen (YKL-39 (266-278)). Cultures were incubated for 6 days at 37° C. in a humidified atmosphere of 5% CO2. Cells were then suspended and 100 or 150 μl volumes of medium was distributed in 4-fold in wells of a 96-well roundbottomed plate. Cells were then pulsed with 0.5 μCi (1.85×10^4 Bq) [3H]thymidine ([3H]TdR) and 18 hr later incorporated radioactivity was measured. Results as shown in table 3 are expressed as stimulation indices (SI) (antigen-specific counts/background counts).

[4] = system: HC gp-39 (263-275) induced DTH response; experiment: HC gp-39 (263-275)-specific DTH assay, tolerance induction by nasal application; type: in vivo, Balb/c mice; conditions: for tolerance: intranasal pretreatment 50, 10 or 2 micrograms, sensibilisation and challenge with HC gp-39 (263-275)
Description: FIG. 2a, 2b, 2c In vivo tolerization with HC gp-39 (263-275) or YKL-39 ([…]) • Balb/c mice were tolerized by intranasal application of 50, 10 or 2 micrograms of HC gp-39 (263-275), SEQ ID NO: 3, (FIG. 2b) or YKL-39 (266-278) (FIG. 2c) followed by immunization with HC gp-39 (263-275). Mice that were pretreated with saline or that were left untreated were included as controls (FIG. 2a).
A HC gp-39 (263-275)-specific DTH assay suitable to monitor tolerance induction with peptide antigens was developed. […] This peptide-based DTH system was used to detect modulation of the DTH response by nasal application of HC gp-39 (263-275) peptide.

PBMC from RA patients [5] = experiment: recognition by PBMC ([3H]thymidine incorporation, stimulation index); type: cell-based, human; conditions: Table 3b, per donor (169, 455, 447, 327)
Balb/c mice = conditions: single injection in the chest region, μg amounts of protein in IFA; cited from earlier work

Substance | binding affinity to DRB1*0401 (in words) [1] | activation of T-cell hybridomas, IL-2 production (in words) [2] | recognition by PBMC (in words) (PBMC from RA patients [3]; RA patients) | SI 10 μg/ml (PBMC from RA patients [3]; Table 3a, per donor (RA patients), 10 μg/ml peptide, 6 days, SI = antigen-specific counts/background counts) | SI 50 μg/ml (PBMC from RA patients [3]; Table 3a, per donor (RA patients), 50 μg/ml peptide, 6 days) | SI 10 μg/ml (PBMC from RA patients [3]; Table 3b, per donor (169, 455, 447, 327), 10 μg/ml antigen) | SI 50 μg/ml (PBMC from RA patients [3]; Table 3b, per donor (169, 455, 447, 327), 50 μg/ml antigen) | responder / non-responder (PBMC from RA patients [3]; per donor, RA patients, SI >= 5 regarded positive) | tolerance [4] | tolerance ([4]; listed as YKL-39 266-278) | downmodulation of the DTH response (in words) ([4]; nasal application, Balb/c mice immunised with HC gp-39 (263-275) in IFA) | SI 10 μg/ml (PBMC from RA patients [5]; 10 μg/ml antigen) | SI 50 μg/ml (PBMC from RA patients [5]; 50 μg/ml antigen) | arthritogenicity (Balb/c mice)
HSFTLASAETTVG [YKL-39 (266-278), HSFTLASAETTVG] | very high affinity | response similar to HC gp-39 (263-275) | readily recognized | 9 and 15 and <2 (3×) and 4 and 3 (2×) and 19 | 9 and 4 and <2 (4×) and 27 and 25 and 58 | 1 and 6 and 27 and 20 | 2 and 5 and 32 and 35 | R (R = responder); also recorded: NR (NR = non-responder) | yes | effective as a tolerogen | more enhanced downmodulation |  |  | 
HC gp-39: human cartilage glycoprotein-39, a protein of 362 amino acids, target autoantigen in rheumatoid arthritis |  |  |  |  |  |  |  |  |  |  |  | 1 and 12 and 24 and 45 | 1 and 19 and 44 and 95 | induced a chronic joint inflammation
